According to patent publication US6914045B2, “Glycopeptide antibiotics” (Wyeth Holdings Corporation, priority 2001, dated 2005):
In brackets after ≈: the same amount, converted by molar mass.

Experiments:
Test in all cases: in vitro antibacterial evaluation, MIC by broth dilution
Assay type in all cases: cell-based
Streptococcus sp. = details: broth dilution, 18 hours at 35° C.; for MIC Streptococcus pneumoniae (ATCC 6301): strain ATCC 6301; for MIC Streptococcus pneumoniae (GC 1894): strain GC 1894; for MIC Streptococcus pyogenes (GC 4563): strain GC 4563; for MIC Streptococcus agalactiae (GC 4564): strain GC 4564; for MIC Streptococcus pneumoniae (GC 4565): strain GC 4565
In short: (§1)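 Read-out: the lowest concentration at which the test strain fails to grow. Serial dilutions (64-0.06 μg/mL) in Muller-Hinton II […], 5×10^5 CFU/mL inoculum, NCCLS M7-A2 procedure.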

Staphylococcus sp. = details: broth dilution, 18 hours at 35° C.; for MIC Staphylococcus aureus (GC 1131): strain GC 1131
In short: as §1

Enterococcus sp. = details: broth dilution, 18 hours at 35° C.; for MIC Enterococcus faecalis (ATCC 29212): strain ATCC 29212; for MIC Enterococcus faecalis (GC 2242): strain GC 2242; for MIC Enterococcus faecium (GC 2243): strain GC 2243; for MIC Enterococcus faecalis (GC 2691): strain GC 2691; for MIC Enterococcus faecalis (GC 3059): strain GC 3059; for MIC Enterococcus faecalis (GC 4552): strain GC 4552; for MIC Enterococcus faecalis (GC 4553): strain GC 4553; for MIC Enterococcus faecalis (GC 4554): strain GC 4554; for MIC Enterococcus faecium (GC 4556): strain GC 4556; for MIC Enterococcus faecium (GC 4557): strain GC 4557; for MIC Enterococcus avium (GC 4558): strain GC 4558; for MIC Enterococcus faecalis (GC 6189): strain GC 6189
In short: as §1

Escherichia coli = tested on: Escherichia coli
In short: as §1

## CSc1ccc(C2OCC3OC(OC4C(CO)OC(Oc5ccc(CC6NC(=O)C(C(C)c7ccccc7)NC(=O)CNC(=O)C(CO)NC(=O)C(C(O)C7CNC(=N)N7C7OC(CO)C(O)C(O)C7O)NC(=O)C(C(O)C7CNC(=N)N7)NC6=O)cc5)C(O)C4O)C(O)C(O)C3O2)cc1[N+](=O)[O-] (stereo not shown) [Example 168]
Streptococcus sp.; inoculum 5×10^5 CFU/mL
  MIC Streptococcus pneumoniae (ATCC 6301): <0.12 µg/mL
  MIC Streptococcus pneumoniae (GC 1894): <0.12 µg/mL
  MIC Streptococcus pyogenes (GC 4563): 0.5 µg/mL (≈ 0.339 µM)
  MIC Streptococcus agalactiae (GC 4564): <0.12 µg/mL
  MIC Streptococcus pneumoniae (GC 4565): <0.12 µg/mL
Streptococcus sp.
  MIC Streptococcus pneumoniae (ATCC 6301): <0.12 µg/mL
  MIC Streptococcus pneumoniae (GC 1894): <0.12 µg/mL
  MIC Streptococcus pyogenes (GC 4563): 0.5 µg/mL (≈ 0.339 µM)
  MIC Streptococcus agalactiae (GC 4564): <0.12 µg/mL
  MIC Streptococcus pneumoniae (GC 4565): <0.12 µg/mL
Staphylococcus sp.; inoculum 5×10^5 CFU/mL
  MIC Staphylococcus aureus (GC 1131): 1 µg/mL (≈ 0.678 µM)
Staphylococcus sp.; strain ATCC 29213
  MIC Staphylococcus aureus (ATCC 29213): 1 µg/mL (≈ 0.678 µM)
Staphylococcus sp.
  MIC Staphylococcus aureus (GC 1131): 1 µg/mL (≈ 0.678 µM)
Staphylococcus sp.; strain GC 3051
  MIC Staphylococcus aureus (GC 3051): 1 µg/mL (≈ 0.678 µM)
Staphylococcus sp.; strain GC 3053
  MIC Staphylococcus aureus (GC 3053): 1 µg/mL (≈ 0.678 µM)
Staphylococcus sp.; strain GC 4541
  MIC Staphylococcus aureus (GC 4541): 1 µg/mL (≈ 0.678 µM)
Staphylococcus sp.; strain GC 4542
  MIC Staphylococcus aureus (GC 4542): 1 µg/mL (≈ 0.678 µM)
Staphylococcus sp.; strain GC 4543
  MIC Staphylococcus aureus-SMITH (GC 4543): 1 µg/mL (≈ 0.678 µM)
Staphylococcus sp.; strain GC 4544
  MIC Staphylococcus aureus (GC 4544): 2 µg/mL (≈ 1.36 µM)
Staphylococcus sp.; strain GC 4545
  MIC Staphylococcus aureus (GC 4545): 1 µg/mL (≈ 0.678 µM)
Staphylococcus sp.; strain GC 4546
  MIC Staphylococcus haemolyticus (GC 4546): 0.5 µg/mL (≈ 0.339 µM)
Staphylococcus sp.; strain GC 4547
  MIC Coagulase Negative Staphylococcus (GC 4547): 2 µg/mL (≈ 1.36 µM)
Staphylococcus sp.; strain GC 4548
  MIC Coagulase Negative Staphylococcus (GC 4548): 0.5 µg/mL (≈ 0.339 µM)
Staphylococcus sp.; strain GC 4549
  MIC Coagulase Negative Staphylococcus (GC 4549): 0.5 µg/mL (≈ 0.339 µM)
Staphylococcus sp.; strain GC 4551
  MIC Coagulase Negative Staphylococcus (GC 4551): 1 µg/mL (≈ 0.678 µM)
Enterococcus sp.; inoculum 5×10^5 CFU/mL
  MIC Enterococcus faecalis (ATCC 29212): 2 µg/mL (≈ 1.36 µM)
  MIC Enterococcus faecalis (GC 2242): 2 µg/mL (≈ 1.36 µM)
  MIC Enterococcus faecium (GC 2243): 2 µg/mL (≈ 1.36 µM)
  MIC Enterococcus faecalis (GC 2691): 2 µg/mL (≈ 1.36 µM)
  MIC Enterococcus faecalis (GC 3059): 2 µg/mL (≈ 1.36 µM)
  MIC Enterococcus faecalis (GC 4552): 2 µg/mL (≈ 1.36 µM)
  MIC Enterococcus faecalis (GC 4553): 2 µg/mL (≈ 1.36 µM)
  MIC Enterococcus faecalis (GC 4554): 2 µg/mL (≈ 1.36 µM)
  MIC Enterococcus faecium (GC 4556): 2 µg/mL (≈ 1.36 µM)
  MIC Enterococcus faecium (GC 4557): 1 µg/mL (≈ 0.678 µM)
  MIC Enterococcus avium (GC 4558): 2 µg/mL (≈ 1.36 µM)
  MIC Enterococcus faecalis (GC 6189): 2 µg/mL (≈ 1.36 µM)
Enterococcus sp.
  MIC Enterococcus faecalis (ATCC 29212): 2 µg/mL (≈ 1.36 µM)
  MIC Enterococcus faecalis (GC 2242): 2 µg/mL (≈ 1.36 µM)
  MIC Enterococcus faecium (GC 2243): 2 µg/mL (≈ 1.36 µM)
  MIC Enterococcus faecalis (GC 2691): 2 µg/mL (≈ 1.36 µM)
  MIC Enterococcus faecalis (GC 3059): 2 µg/mL (≈ 1.36 µM)
  MIC Enterococcus faecalis (GC 4552): 2 µg/mL (≈ 1.36 µM)
  MIC Enterococcus faecalis (GC 4553): 2 µg/mL (≈ 1.36 µM)
  MIC Enterococcus faecalis (GC 4554): 2 µg/mL (≈ 1.36 µM)
  MIC Enterococcus faecium (GC 4556): 2 µg/mL (≈ 1.36 µM)
  MIC Enterococcus faecium (GC 4557): 1 µg/mL (≈ 0.678 µM)
  MIC Enterococcus avium (GC 4558): 2 µg/mL (≈ 1.36 µM)
  MIC Enterococcus faecalis (GC 6189): 2 µg/mL (≈ 1.36 µM)
Escherichia coli; strain ATCC 25922, 18 hours at 35° C.
  MIC Escherichia coli (ATCC 25922): 64 µg/mL (≈ 43.4 µM)
Escherichia coli; strain GC 4559, 18 hours at 35° C.
  MIC Escherichia coli (GC 4559): 16 µg/mL (≈ 10.9 µM)
Escherichia coli; strain GC 4560, 18 hours at 35° C.
  MIC Escherichia coli (GC 4560): 0.5 µg/mL (≈ 0.339 µM)
